Values quoted from earlier work, collected in US20050150424A1, “Ink composition and inkjet recording method” (FUJI PHOTO FILM CO., LTD., priority 2003, published 2005).
Like-named read-outs stand apart in the source and are kept apart here.

Conditions: in water at 25° C.

pKa (Table 4)	SMILES	pKa
2-Ethylhexanoic acid (pKa: 4.1)	CCCCC(CC)C(=O)O (centres unmarked) [2-Ethylhexanoic acid]	–
–	C=C(C)C(=O)OCCOC(=O)c1ccccc1C(=O)O [2-methacryloyloxyethyl phthalate]	4.0
–	C=CC(=O)O [acrylic acid]	3.6
–	C=C(C)C(=O)OCCOP(=O)(O)O [ethylene glycol methacrylate phosphate]	2.5
–	C=C(C)C(=O)O [methacrylic acid]	3.6
